Tests used:
Assay in all cases: relative viability (nuclei count vs DMSO), 5 days (fraction); higher = more cells survive
[1] = tested on: NCI-H322M
Outline: (§1)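 Relative viability is defined as nuclei in treated wells over nuclei in vehicle wells. Duplicate plates were run and medians reported. Lung cancer cell lines in 1536-well plates were dosed by pin tool one day after seeding, with one drug or with a fixed anchor-drug dose plus five library-drug doses (not always all listed) in √10 steps, and nuclei were counted after 5 days.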

[2] = tested on: HCC-44
Outline: as §1

[3] = tested on: NCI-H1395
Outline: as §1

[4] = tested on: SK-LU-1
Outline: as §1

[5] = tested on: NCI-H727
Outline: as §1

[6] = tested on: BEN
Outline: as §1

[7] = tested on: HOP-62
Outline: as §1

[8] = tested on: 201T
Outline: as §1

[9] = tested on: NCI-H2087
Outline: as §1

[10] = tested on: NCI-H647
Outline: as §1

[11] = tested on: LXF-289
Outline: as §1

[12] = tested on: LCLC-103H
Outline: as §1

[13] = tested on: NCI-H1650
Outline: as §1

[14] = tested on: LCLC-97TM1
Outline: as §1

[15] = tested on: NCI-H2023
Outline: as §1

[16] = tested on: HCC-827
Outline: as §1

[17] = tested on: NCI-H2405
Outline: as §1

[18] = tested on: RERF-LC-KJ
Outline: as §1

[19] = tested on: NCI-H3122
Outline: as §1

[20] = tested on: NCI-H1355
Outline: as §1

[21] = tested on: NCI-H1793
Outline: as §1

[22] = tested on: NCI-H1437
Outline: as §1

[23] = tested on: NCI-H2228
Outline: as §1

[24] = tested on: CAL-12T
Outline: as §1

## C[C@@H]1CN(CC(=O)Nc2ccc3c(c2)Cc2cccc(-c4cc(=O)cc(N5CCOCC5)o4)c2S3)C[C@H](C)O1 + Nc1ncn([C@H]2C[C@H](O)[C@@H](CO)O2)c(=O)n1 [Decitabine] (partner 2 µM)
[1]; first compound 0.04 µM
  relative viability: 0.526
[1]; first compound 0.1265 µM
  relative viability: 0.723
[1]; first compound 0.4 µM
  relative viability: 0.657
[1]; first compound 4 µM
  relative viability: 0.638
[2]; first compound 0.04 µM
  relative viability: 0.898
[2]; first compound 0.1265 µM
  relative viability: 0.93
[2]; first compound 0.4 µM
  relative viability: 0.972
[2]; first compound 4 µM
  relative viability: 0.953
[3]; first compound 0.1265 µM
  relative viability: 0.763
[3]; first compound 0.4 µM
  relative viability: 0.653
[3]; first compound 4 µM
  relative viability: 0.752
[4]; first compound 0.04 µM
  relative viability: 0.693
[4]; first compound 0.1265 µM
  relative viability: 0.719
[4]; first compound 0.4 µM
  relative viability: 0.646
[4]; first compound 4 µM
  relative viability: 0.59
[5]; first compound 0.04 µM
  relative viability: 1.14
[5]; first compound 0.1265 µM
  relative viability: 1
[5]; first compound 0.4 µM
  relative viability: 0.99
[5]; first compound 4 µM
  relative viability: 0.8
[6]; first compound 0.04 µM
  relative viability: 0.702
[6]; first compound 0.1265 µM
  relative viability: 0.696
[6]; first compound 0.4 µM
  relative viability: 0.81
[6]; first compound 4 µM
  relative viability: 0.735
[7]; first compound 0.04 µM
  relative viability: 0.229
[7]; first compound 0.1265 µM
  relative viability: 0.202
[7]; first compound 0.4 µM
  relative viability: 0.187
[7]; first compound 4 µM
  relative viability: 0.245
[8]; first compound 0.04 µM
  relative viability: 0.816
[8]; first compound 0.1265 µM
  relative viability: 0.818
[8]; first compound 0.4 µM
  relative viability: 0.84
[8]; first compound 4 µM
  relative viability: 0.791
[9]; first compound 0.04 µM
  relative viability: 0.306
[9]; first compound 0.1265 µM
  relative viability: 0.336
[9]; first compound 0.4 µM
  relative viability: 0.267
[9]; first compound 4 µM
  relative viability: 0.254
[10]; first compound 0.04 µM
  relative viability: 0.442
[10]; first compound 0.1265 µM
  relative viability: 0.376
[10]; first compound 0.4 µM
  relative viability: 0.369
[10]; first compound 4 µM
  relative viability: 0.346
[11]; first compound 0.04 µM
  relative viability: 0.374
[11]; first compound 0.1265 µM
  relative viability: 0.354
[11]; first compound 0.4 µM
  relative viability: 0.419
[11]; first compound 4 µM
  relative viability: 0.419
[12]; first compound 0.04 µM
  relative viability: 0.693
[12]; first compound 0.1265 µM
  relative viability: 0.695
[12]; first compound 0.4 µM
  relative viability: 0.697
[12]; first compound 4 µM
  relative viability: 0.737
[13]; first compound 0.04 µM
  relative viability: 0.492
[13]; first compound 0.1265 µM
  relative viability: 0.44
[13]; first compound 0.4 µM
  relative viability: 0.488
[13]; first compound 4 µM
  relative viability: 0.499
[14]; first compound 0.1265 µM
  relative viability: 0.231
[14]; first compound 0.4 µM
  relative viability: 0.279
[14]; first compound 4 µM
  relative viability: 0.273
[15]; first compound 0.04 µM
  relative viability: 0.197
[15]; first compound 0.1265 µM
  relative viability: 0.227
[15]; first compound 0.4 µM
  relative viability: 0.225
[15]; first compound 4 µM
  relative viability: 0.224
[16]; first compound 0.04 µM
  relative viability: 0.355
[16]; first compound 0.1265 µM
  relative viability: 0.362
[16]; first compound 0.4 µM
  relative viability: 0.418
[16]; first compound 4 µM
  relative viability: 0.382
[17]; first compound 0.04 µM
  relative viability: 0.878
[17]; first compound 0.1265 µM
  relative viability: 0.814
[17]; first compound 0.4 µM
  relative viability: 0.728
[17]; first compound 4 µM
  relative viability: 0.803
[18]; first compound 0.04 µM
  relative viability: 0.711
[18]; first compound 0.1265 µM
  relative viability: 0.61
[18]; first compound 0.4 µM
  relative viability: 0.678
[18]; first compound 4 µM
  relative viability: 0.556
[19]; first compound 0.04 µM
  relative viability: 0.423
[19]; first compound 0.1265 µM
  relative viability: 0.396
[19]; first compound 0.4 µM
  relative viability: 0.42
[19]; first compound 4 µM
  relative viability: 0.436
[20]; first compound 0.04 µM
  relative viability: 0.389
[20]; first compound 0.1265 µM
  relative viability: 0.338
[20]; first compound 0.4 µM
  relative viability: 0.363
[20]; first compound 4 µM
  relative viability: 0.375
[21]; first compound 0.04 µM
  relative viability: 0.536
[21]; first compound 0.1265 µM
  relative viability: 0.552
[21]; first compound 0.4 µM
  relative viability: 0.503
[21]; first compound 4 µM
  relative viability: 0.526
[22]; first compound 0.04 µM
  relative viability: 0.648
[22]; first compound 0.1265 µM
  relative viability: 0.591
[22]; first compound 0.4 µM
  relative viability: 0.625
[22]; first compound 4 µM
  relative viability: 0.608

## CC(C)Oc1cc(Nc2nc(N[C@@H](C)c3ccc(F)cn3)ncc2Cl)n[nH]1 [AZ23] + Cc1nc(NC(=O)N2CCC[C@H]2C(N)=O)sc1-c1ccnc(C(C)(C)C(F)(F)F)c1 [Alpelisib] (partner 2 µM)
[1]; first compound 0.01 µM
  relative viability: 0.774
[1]; first compound 0.03162 µM
  relative viability: 0.774
[1]; first compound 0.3162 µM
  relative viability: 0.823
[2]; first compound 0.01 µM
  relative viability: 0.858
[2]; first compound 0.03162 µM
  relative viability: 0.915
[2]; first compound 0.3162 µM
  relative viability: 0.871
[3]; first compound 0.03162 µM
  relative viability: 1.06
[3]; first compound 0.3162 µM
  relative viability: 1.08
[4]; first compound 0.01 µM
  relative viability: 1.28
[4]; first compound 0.03162 µM
  relative viability: 1.09
[4]; first compound 0.3162 µM
  relative viability: 0.973
[5]; first compound 0.01 µM
  relative viability: 0.634
[5]; first compound 0.03162 µM
  relative viability: 0.628
[5]; first compound 0.3162 µM
  relative viability: 0.601
[6]; first compound 0.01 µM
  relative viability: 1.02
[6]; first compound 0.03162 µM
  relative viability: 1.18
[6]; first compound 0.3162 µM
  relative viability: 1.09
[23]; first compound 0.01 µM
  relative viability: 0.88
[23]; first compound 0.03162 µM
  relative viability: 1.01
[23]; first compound 0.3162 µM
  relative viability: 0.67
[7]; first compound 0.01 µM
  relative viability: 1.08
[7]; first compound 0.03162 µM
  relative viability: 0.973
[7]; first compound 0.3162 µM
  relative viability: 0.97
[8]; first compound 0.01 µM
  relative viability: 1.03
[8]; first compound 0.03162 µM
  relative viability: 1.09
[8]; first compound 0.3162 µM
  relative viability: 1.02
[9]; first compound 0.01 µM
  relative viability: 1.39
[9]; first compound 0.03162 µM
  relative viability: 1.07
[9]; first compound 0.3162 µM
  relative viability: 1.07
[10]; first compound 0.01 µM
  relative viability: 1.63
[10]; first compound 0.03162 µM
  relative viability: 1.37
[10]; first compound 0.3162 µM
  relative viability: 1.17
[11]; first compound 0.01 µM
  relative viability: 1.15
[11]; first compound 0.03162 µM
  relative viability: 1.08
[11]; first compound 0.3162 µM
  relative viability: 1.05
[12]; first compound 0.01 µM
  relative viability: 0.953
[12]; first compound 0.03162 µM
  relative viability: 1.01
[12]; first compound 0.3162 µM
  relative viability: 0.996
[14]; first compound 0.01 µM
  relative viability: 0.228
[14]; first compound 0.03162 µM
  relative viability: 0.246
[14]; first compound 0.3162 µM
  relative viability: 0.245
[15]; first compound 0.03162 µM
  relative viability: 0.675
[15]; first compound 0.3162 µM
  relative viability: 0.623
[16]; first compound 0.01 µM
  relative viability: 1.11
[16]; first compound 0.03162 µM
  relative viability: 1.05
[16]; first compound 0.3162 µM
  relative viability: 1.07
[17]; first compound 0.01 µM
  relative viability: 0.708
[17]; first compound 0.03162 µM
  relative viability: 0.768
[17]; first compound 0.3162 µM
  relative viability: 0.754
[18]; first compound 0.01 µM
  relative viability: 0.714
[18]; first compound 0.03162 µM
  relative viability: 0.925
[18]; first compound 0.3162 µM
  relative viability: 0.845
[19]; first compound 0.01 µM
  relative viability: 0.811
[19]; first compound 0.03162 µM
  relative viability: 0.827
[19]; first compound 0.3162 µM
  relative viability: 0.77
[20]; first compound 0.01 µM
  relative viability: 0.876
[20]; first compound 0.03162 µM
  relative viability: 0.873
[20]; first compound 0.3162 µM
  relative viability: 0.782
[21]; first compound 0.01 µM
  relative viability: 0.83
[21]; first compound 0.03162 µM
  relative viability: 0.787
[21]; first compound 0.3162 µM
  relative viability: 0.643
[22]; first compound 0.01 µM
  relative viability: 0.949
[22]; first compound 0.03162 µM
  relative viability: 1.15
[22]; first compound 0.3162 µM
  relative viability: 1.06
[24]; first compound 0.01 µM
  relative viability: 0.787
[24]; first compound 0.03162 µM
  relative viability: 1.26
[24]; first compound 0.3162 µM
  relative viability: 1.28

Reference: the supplement of paper PMC10307832
